Tested on: IL-1β secretion, THP-1 cells
Assay: IL-1β secretion assay in PMA-differentiated THP-1 cells stimulated with LPS and nigericin (ELISA readout)
Format: cell-based
Details: Homo sapiens, THP-1, inhibition of IL-1β secretion, 25 ng/mL LPS then nigericin
Experimental: Compounds as provided herein were tested in the following assay. Cell culture medium employed contained RPMI 1640 medium (89%), FBS (10%), Pen/Strep (1%), and 2-mercaptoethanol (0.05 mM). Freezing medium was made up of 90% FBS and 10% DMSO. THP-1 cells were removed from the liquid nitrogen and placed into a 37° C. water bath to thaw, until signs of ice dissipated. The cells were then added to 9 mL of warm cell culture medium and centrifuged for 5 minutes at 1000 rpm. The supernatant was discarded, and the cells were resuspended in new cell culture medium. THP-1 cells were then split and cultured in the cell culture medium, being passaged every 2-3 days with the cell density will be maintained between 5×10^5 and 1.5×10^6 viable cells/mL.
PMA was dissolved in DMSO to make a stock solution at 5 mg/ml and stored in 10 µl aliquots at -20° C. for single use. PMA is added to normal growth medium. LPS was diluted with 1 mL of water solution to provide a 1 mg/mL stock solution and stored in 15 µl aliquots at -20° C. for single use. Nigericin is diluted in ice cold 100% ethanol to 5 mg/ml (6.7 mM) and stored in 75 µL aliquots at -20° C. for single use. Serum-free media contains RPMI 1640 medium (99%), Pen/Strep (1%), and 2-mercaptoethanol (0.05 mM). The two control conditions used to qualify and normalize test compound dose-response curves were as follows: High Control = 25 ng/mL LPS, 5 µM Nigericin, 0.5% DMSO, Low Control = 25 ng/mL, LPS, 0.5% DMSO.
THP-1 cells were diluted to provide a suspension at a concentration of 1.0×10^6 cells/mL with the total volume of suspension required to enable the desired number of assay plates. The growth media was supplemented with PMA (5 ng/mL final concentration) and the cells were incubated at 37° C. under a humidified atmosphere of 5% CO2 for 40 h.
All media was carefully aspirated from each culture flask. The cells were washed carefully with 1x DPBS. The cells were then briefly digested with trypsin LE for 5 minutes at 23° C. and immediately resuspended in cell growth media. After resuspension, the cells were centrifuged at 1000 rpm for 3 minutes and the supernatant was discarded. The cells were resuspended in DPBS and once again centrifuged at 1000 rpm for 5 minutes. The supernatant was discarded and the cell pellet was resuspended in serum-free media supplemented with LPS (25 ng/mL final concentration) to enable the distribution of 30 K THP-1 cells within 45 µL of media into each well of 384-well PDL-coated plates. The 384-well plates were then incubated at 37° C. under a humidified atmosphere of 5% CO2 for 2 h. Following this period, test compounds were dispensed by Tecan across the desired concentration range with all wells normalized to a final 0.5 % DMSO concentration. The plates were then then incubated at 37° C. under a humidified atmosphere of 5% CO2 for 1 h. Following this period, 5 µL of the […] nigericin stock solution was added to each of the appropriate wells and plates were centrifuged at 1000 rpm for 30 seconds. The plates were the immediately reintroduced to the incubator at 37° C. under a humidified atmosphere of 5% CO2 for 2 h. After this time, 35 µL/well of supernatant was collected and transferred into v-bottom plate and centrifuged at 1000 rpm for 1 minute. These supernatant aliquots were analyzed using an IL-Iβ detection kit as described below. If needed, the test samples could be snap frozen and stored at -80° C. until analyzed.
To prepare each ELISA plate, capture antibody (mAb Mt175) was diluted with PBS to a final concentration of 2 µg/mL and then 20 µL of this solution was added to each well of the ELISA plate. Each plate was allowed to incubate overnight at 4° C. The next day, the capture antibody solution was removed and discarded. Each ELISA plate was washed 4 times with PBST followed by the addition of 25 µL/well of blocking buffer (Licor-927-40010) supplemented with 0.1% Tween 20. Each ELISA plate was then allowed to incubate for 1 hour at 23° C. […]

Row | Compound | IC50 (class column of Table 3) | IC50 (numeric column of Table 3)
1 | CC(C)c1nn(CC(=O)Nc2c(F)cnn2C)c(=O)c2ccc(Br)cc12 [Example 50, 2-(6-bromo-1-oxo-4-propan-2-ylphthalazin-2-yl)-N-(4-fluoro-2-methylpyrazol-3-yl)acetamide] | > 15 µM | 27.5 µM
2 | CC(C)c1nn(CC(=O)Nc2ccnc(C3CC3)n2)c(=O)c2ccc(Br)cc12 [Example 51, 2-(6-bromo-1-oxo-4-propan-2-ylphthalazin-2-yl)-N-(2-cyclopropylpyrimidin-4-yl)acetamide] | < 10 µM | 0.863 µM
3 | CC(C)c1nn(CC(=O)Nc2cccnc2)c(=O)c2ccc(Br)cc12 [Example 55, 2-(6-bromo-1-oxo-4-propan-2-ylphthalazin-2-yl)-N-pyridin-3-ylacetamide] | < 10 µM | 0.71 µM
4 | CC(C)c1nn(CC(=O)Nc2cncnc2)c(=O)c2ccc(Br)cc12 [Example 56, 2-(6-bromo-1-oxo-4-propan-2-ylphthalazin-2-yl)-N-pyrimidin-5-ylacetamide] | < 10 µM | 3.23 µM
5 | CC(C)c1nn(CC(=O)Nc2ccc(C#N)cc2F)c(=O)c2ccc(Br)cc12 [Example 59, 2-(6-bromo-1-oxo-4-propan-2-ylphthalazin-2-yl)-N-(4-cyano-2-fluorophenyl)acetamide] | < 10 µM | 0.457 µM
6 | CC(C)c1nn(CC(=O)Nc2ccc3cnn(C)c3c2)c(=O)c2ccc(Br)cc12 [Example 61, 2-(6-bromo-1-oxo-4-propan-2-ylphthalazin-2-yl)-N-(1-methylindazol-6-yl)acetamide] | < 10 µM | 0.943 µM
7 | CC(C)c1nn(CC(=O)Nc2nn(C)cc2F)c(=O)c2ccc(Br)cc12 [Example 62, 2-(6-bromo-1-oxo-4-propan-2-ylphthalazin-2-yl)-N-(4-fluoro-1-methylpyrazol-3-yl)acetamide] | 10 to 15 µM | 10.3 µM
8 | Cc1cnn(C)c1NC(=O)Cn1nc(C(C)C)c2cc(Br)ccc2c1=O [Example 63, 2-(6-bromo-1-oxo-4-propan-2-ylphthalazin-2-yl)-N-(2,4-dimethylpyrazol-3-yl)acetamide] | 10 to 15 µM | 12.8 µM
9 | Cc1cc(NC(=O)Cn2nc(C(C)C)c3cc(Br)ccc3c2=O)n(C)n1 [Example 64, 2-(6-bromo-1-oxo-4-propan-2-ylphthalazin-2-yl)-N-(2,5-dimethylpyrazol-3-yl)acetamide] | < 10 µM | 0.392 µM
10 | CC(C)c1nn(CC(=O)Nc2ncc(Cl)cc2F)c(=O)c2ccc(Br)cc12 [Example 68, 2-(6-bromo-1-oxo-4-propan-2-ylphthalazin-2-yl)-N-(5-chloro-3-fluoropyridin-2-yl)acetamide] | < 10 µM | 0.11 µM
11 | CC(C)c1nn(CC(=O)Nc2ccn(C)n2)c(=O)c2ccc(Br)cc12 [Example 69, 2-(6-bromo-1-oxo-4-propan-2-ylphthalazin-2-yl)-N-(1-methylpyrazol-3-yl)acetamide] | < 10 µM | 1.71 µM
12 | CC(C)c1nn(CC(=O)Nc2cccnn2)c(=O)c2ccc(Br)cc12 [Example 70, 2-(6-bromo-1-oxo-4-propan-2-ylphthalazin-2-yl)-N-pyridazin-3-ylacetamide] | < 10 µM | 0.952 µM
13 | CC(C)c1nn(CC(=O)Nc2cnccn2)c(=O)c2ccc(Br)cc12 [Example 71, 2-(6-bromo-1-oxo-4-propan-2-ylphthalazin-2-yl)-N-pyrazin-2-ylacetamide] | < 10 µM | 0.499 µM
14 | CC(C)c1nn(CC(=O)NC(C)c2ccccc2)c(=O)c2ccc(Br)cc12 (centres unmarked) [Example 72, 2-(6-bromo-1-oxo-4-propan-2-ylphthalazin-2-yl)-N-(1-phenylethyl)acetamide] | < 10 µM | 9.04 µM
15 | CC(C)c1nn(CC(=O)N2CCCc3ccccc32)c(=O)c2ccc(Br)cc12 [Example 73, 6-bromo-2-[2-(3,4-dihydro-2H-quinolin-1-yl)-2-oxoethyl]-4-propan-2-ylphthalazin-1-one] | < 10 µM | 9.63 µM

Now from value to molecule:

Row | IC50 (class column of Table 3) | IC50 (numeric column of Table 3) | Compound
16 | < 10 µM | 2.53 µM | CC(C)c1nn(CC(=O)NC2CCOC2)c(=O)c2ccc(Br)cc12 (centres unmarked) [Example 52, 2-(6-bromo-1-oxo-4-propan-2-ylphthalazin-2-yl)-N-(oxolan-3-yl)acetamide]
17 | < 10 µM | 1.13 µM | CC(C)c1nn(CC(=O)NC2CCOCC2)c(=O)c2ccc(Br)cc12 [Example 53, 2-(6-bromo-1-oxo-4-propan-2-ylphthalazin-2-yl)-N-(oxan-4-yl)acetamide]
18 | < 10 µM | 0.349 µM | CC(C)c1nn(CC(=O)NC2CC3(COC3)C2)c(=O)c2ccc(Br)cc12 [Example 54, 2-(6-bromo-1-oxo-4-propan-2-ylphthalazin-2-yl)-N-(2-oxaspiro[3.3]heptan-6-yl)acetamide]
19 | < 10 µM | 4.4 µM | CC(C)c1nn(CC(=O)NCC2CCCOC2)c(=O)c2ccc(Br)cc12 (centres unmarked) [Example 57, 2-(6-bromo-1-oxo-4-propan-2-ylphthalazin-2-yl)-N-(oxan-3-ylmethyl)acetamide]
20 | < 10 µM | 3.99 µM | CC(C)c1nn(CC(=O)NCC2COCCN2C)c(=O)c2ccc(Br)cc12 (centres unmarked) [Example 58, 2-(6-bromo-1-oxo-4-propan-2-ylphthalazin-2-yl)-N-[(4-methylmorpholin-3-yl)methyl]acetamide]
21 | < 10 µM | 1.41 µM | CC(C)c1nn(CC(=O)NC2CCOC(C)(C)C2)c(=O)c2ccc(Br)cc12 (centres unmarked) [Example 60, 2-(6-bromo-1-oxo-4-propan-2-ylphthalazin-2-yl)-N-(2,2-dimethyloxan-4-yl)acetamide]
22 | > 15 µM | 22.7 µM | CC(C)c1nn(CC(=O)NCC2CN(C)CCO2)c(=O)c2ccc(Br)cc12 (centres unmarked) [Example 65, 2-(6-bromo-1-oxo-4-propan-2-ylphthalazin-2-yl)-N-[(4-methylmorpholin-2-yl)methyl]acetamide]
23 | < 10 µM | 2.44 µM | CC(C)c1nn(CC(=O)NC2CCC(=O)N(C)C2)c(=O)c2ccc(Br)cc12 (centres unmarked) [Example 66, 2-(6-bromo-1-oxo-4-propan-2-ylphthalazin-2-yl)-N-(1-methyl-6-oxopiperidin-3-yl)acetamide]
24 | < 10 µM | 1.03 µM | CC(C)c1nn(CC(=O)Nc2ccnn2C2COC2)c(=O)c2ccc(Br)cc12 [Example 67, 2-(6-bromo-1-oxo-4-propan-2-ylphthalazin-2-yl)-N-[2-(oxetan-3-yl)pyrazol-3-yl]acetamide]
25 | < 10 µM | 3.74 µM | CC(C)c1nn(CC(=O)NCC2CCOCC2)c(=O)c2ccc(Br)cc12 [Example 74, 2-(6-bromo-1-oxo-4-propan-2-ylphthalazin-2-yl)-N-(oxan-4-ylmethyl)acetamide]
26 | < 10 µM | 2.85 µM | CC(C)c1nn(CC(=O)NCC2CCOC2)c(=O)c2ccc(Br)cc12 (centres unmarked) [Example 75, 2-(6-bromo-1-oxo-4-propan-2-ylphthalazin-2-yl)-N-(oxolan-3-ylmethyl)acetamide]
27 | < 10 µM | 8.06 µM | CC(C)c1nn(CC(=O)NC(C)C2CCC2)c(=O)c2ccc(Br)cc12 (centres unmarked) [Example 76, 2-(6-bromo-1-oxo-4-propan-2-ylphthalazin-2-yl)-N-(1-cyclobutylethyl)acetamide]
28 | < 10 µM | 3.85 µM | CO[C@H]1C[C@@H](NC(=O)Cn2nc(C(C)C)c3cc(Br)ccc3c2=O)C1 [Example 77, 2-(6-bromo-1-oxo-4-propan-2-ylphthalazin-2-yl)-N-(3-cis-methoxycyclobutyl)acet amide]
